Experimental data reported in US20180327367A1, “MACROCYCLIC BROAD SPECTRUM ANTIBIOTICS” (priority 2015, published 2018).
Converted amounts (≈) assume the structure as drawn. Like-named read-outs stand apart in the source and are kept apart here.

Tests used:
Format in all cases: cell-based
[1] = test system: Methicillin Resistant Staphylococcus aureus strain USA 300, NRS384; assay: Minimum inhibitory concentration, broth micro-dilution (CLSI), S. aureus; conditions: Staphylococcus aureus, MRSA / NRS 384 / USA300, 22 h
Method: (§1) In vitro antimicrobial activity of each compound was determined by measuring minimal inhibitor concentrations (MICs) using the broth micro-dilution technique as approved by the Clinical and Laboratory Standards Institute (CLSI) (Methods for Dilution Antimicrobial Susceptibility Tests for Bacteria that Grow Aerobically; Approved Standard—Eighth Edition. CLSI document M07-A8. Wayne, Pa.: Clinical and Laboratory Standards; 2009). Antibacterial activity was measure against three strains of bacteria: a Methicillin Resistant Staphylococcus aureus strain USA 300, NRS384 (S. aureus); a strain of Escherichia coli MC4100 harboring the IMP4213 (E. coli IMP), which results in increased outer-membrane permeability (B Martin and Silhavy T. Imp/OstA is required for cell envelope biogenesis in Escherichia coli. (2002) Molecular Microbiology, 45(5), 1289-1302), and Escherichia coli ATCC 25922 (E. coli), a clinically relevant Gram-negative strain. Cells were inoculated onto plates of Trypyticase Soy Agar or Luria Agar respectively and grown at 35° C. for 20 hours. Inocula suspensions were prepared by scraping cells into 1 mL of testing media (cation adjusted Mueller Hinton Broth supplemented with 0.002% v/v Tween-80) and diluting to a final OD600 nm of 0.01.
(§2) Test compounds were prepared in DMSO at a concentration of 10 mg/mL. […] In protocol 2, the compound stocks were diluted into testing media at a concentration of 4 μg/mL and serial 2-fold dilutions were made in the same media, in 96-well U bottom microtiter dishes, for a total of 10 compound concentrations. In protocol 3, compound stocks were diluted into testing media at a concentration of 0.5 μg/mL, with serial 2-fold dilutions conducted as described above. […] Inocula suspensions were added to the 2-fold serial dilutions of test compounds to a final density of OD OD600 nm of 0.0005 and incubated at 35° C. for 22 hours.

[2] = test system: Escherichia coli MC4100 harboring the IMP4213 (E. coli IMP); assay: microbe, parasite or virus in culture; conditions: Escherichia coli, 22 h
Method: as §1, §2

[3] = test system: Escherichia coli ATCC 25922; assay: Minimum inhibitory concentration, broth micro-dilution (CLSI), E. coli; conditions: Escherichia coli, ATCC25922, 22 h
Method: Cells were inoculated onto plates of Trypyticase Soy Agar or Luria Agar respectively and grown at 35° C. for 20 hours. Inocula suspensions were prepared by scraping cells into 1 mL of testing media (cation adjusted Mueller Hinton Broth supplemented with 0.002% v/v Tween-80) and diluting to a final OD600 nm of 0.01.
as §2

[4] = read-out: MIC (μg/mL) S. aureus, MRSA USA 300 NRS384, 35° C., 22 hours
[5] = read-out: MIC (μg/mL) E. coli IMP, E. coli MC4100 IMP4213, increased outer-membrane permeability, 35° C., 22 hours
[6] = read-out: MIC (μg/mL) E. coli, E. coli ATCC 25922, 35° C., 22 hours
[7] = MRSA USA 300 NRS384, 35° C., 22 hours, read-out: MIC (μg/mL) S. aureus
[8] = E. coli ATCC 25922, 35° C., 22 hours, read-out: MIC (μg/mL) E. coli
[9] = read-out: MIC (μg/mL) S. aureus
[10] = read-out: MIC (μg/mL) E. coli IMP

| SMILES | MIC [1, 4] [µg/mL] | MIC [2, 5] [µg/mL] | MIC [3, 6] [µg/mL] | MIC [1, 7] [µg/mL] | MIC [3, 8] [µg/mL] | MIC [1, 9] [µg/mL] | MIC [2, 10] [µg/mL] | MIC ([3]; read-out: MIC (μg/mL) E. coli) [µg/mL] |
| --- | --- | --- | --- | --- | --- | --- | --- | --- |
| CCCCCCCCCC(=O)N[C@H](C(=O)N[C@@H](CCN)C(=O)N(C)[C@@H]1C(=O)N[C@@H](C)C(=O)N[C@H](C(=O)NCC#N)Cc2ccc(OCCN)c(c2)-c2cc1ccc2OCCN)[C@@H](C)O [Compound 356] | 0.094 (≈ 0.105 µM) | 0.13 (≈ 0.146 µM) | 12 (≈ 13.4 µM) | – | – | – | – | – |
| CCCCCCCCCC(=O)N[C@H](CO)C(=O)N[C@@H](CCN)C(=O)N(C)[C@@H]1C(=O)N[C@@H](C)C(=O)N[C@H](C(=O)NCC#N)Cc2ccc(OCCN)c(c2)-c2cc1ccc2OCCN [Compound 359] | 0.063 (≈ 0.0717 µM) | 0.13 (≈ 0.148 µM) | 16 (≈ 18.2 µM) | – | – | – | – | – |
| CCCCCCCCCNC(=O)CC(=O)N[C@@H](CCN)C(=O)N(C)[C@@H]1C(=O)N[C@@H](C)C(=O)N[C@H](C(=O)NCC#N)Cc2ccc(OCCN)c(c2)-c2cc1ccc2OCCN [Compound 361] | – | 0.13 (≈ 0.153 µM) | – | 0.13 (≈ 0.153 µM) | 16 (≈ 18.8 µM) | – | – | – |
| CCCCCCCCCC(=O)NCC(=O)NCC(=O)N[C@@H](CCN)C(=O)N(C)[C@@H]1C(=O)N[C@@H](C)C(=O)N[C@H](C(=O)NCC#N)Cc2ccc(OCCN)c(c2)-c2cc1ccc2OCCN [Compound 362] | 0.25 (≈ 0.276 µM) | 0.5 (≈ 0.552 µM) | 32 (≈ 35.3 µM) | – | – | – | – | – |
| CCCCCCCCCC(=O)N[C@@H](C)C(=O)NCC(=O)N[C@@H](CCN)C(=O)N(C)[C@@H]1C(=O)N[C@@H](C)C(=O)N[C@H](C(=O)NCC#N)Cc2ccc(OCCN)c(c2)-c2cc1ccc2OCCN [Compound 363] | 0.25 (≈ 0.272 µM) | 0.5 (≈ 0.543 µM) | 64 (≈ 69.6 µM) | – | – | – | – | – |
| CCCCCCCCCC(=O)N[C@@H](C)C(=O)NCCC(=O)N[C@@H](CCN)C(=O)N(C)[C@@H]1C(=O)N[C@@H](C)C(=O)N[C@H](C(=O)NCC#N)Cc2ccc(OCCN)c(c2)-c2cc1ccc2OCCN [Compound 364] | – | 0.75 (≈ 0.803 µM) | – | 0.38 (≈ 0.407 µM) | 48 (≈ 51.4 µM) | – | – | – |
| CCCCCCCCCC(=O)N[C@H](C)C(=O)NCCC(=O)N[C@@H](CCN)C(=O)N(C)[C@@H]1C(=O)N[C@@H](C)C(=O)N[C@H](C(=O)NCC#N)Cc2ccc(OCCN)c(c2)-c2cc1ccc2OCCN [Compound 365] | – | 0.5 (≈ 0.535 µM) | – | 0.38 (≈ 0.407 µM) | 64 (≈ 68.5 µM) | – | – | – |
| CCCCCCCCCC(=O)NCCC(=O)NCC(=O)N[C@@H](CCN)C(=O)N(C)[C@@H]1C(=O)N[C@@H](C)C(=O)N[C@H](C(=O)NCC#N)Cc2ccc(OCCN)c(c2)-c2cc1ccc2OCCN [Compound 368] | 0.25 (≈ 0.272 µM) | 1 (≈ 1.09 µM) | 64 (≈ 69.6 µM) | – | – | – | – | – |
| CCCCCCCCCC(=O)N[C@H](C)C(=O)N[C@@H](CCN)C(=O)N(C)[C@@H]1C(=O)N[C@@H](C)C(=O)N[C@H](C(=O)NCC#N)Cc2ccc(OCCN)c(c2)-c2cc1ccc2OCCN [Compound 374] | 0.19 (≈ 0.22 µM) | 0.13 (≈ 0.151 µM) | 16 (≈ 18.5 µM) | – | – | – | – | – |
| CCCCCCCCCC(=O)NCCC(=O)NCCC(=O)N[C@@H](CCN)C(=O)N(C)[C@@H]1C(=O)N[C@@H](C)C(=O)N[C@H](C(=O)NCC#N)Cc2ccc(OCCN)c(c2)-c2cc1ccc2OCCN [Compound 376] | – | 2.3 (≈ 2.46 µM) | – | 0.5 (≈ 0.535 µM) | > 64 | – | – | – |
| CCCCc1ccc(C(=O)N[C@@H](CCN)C(=O)N[C@@H](C)C(=O)N(C)[C@@H]2C(=O)N[C@@H](C)C(=O)N[C@H](C(=O)NCC#N)Cc3ccc(OCCN)c(c3)-c3cc2ccc3OCCN)c(C)c1 [Compound 380] | > 4 | 4 (≈ 4.53 µM) | 64 (≈ 72.5 µM) | – | – | – | – | – |
| CCCCc1ccc(C(=O)N[C@@H](CCO)C(=O)N[C@@H](CCN)C(=O)N(C)[C@@H]2C(=O)N[C@@H](C)C(=O)N[C@H](C(=O)NCC#N)Cc3ccc(OCCN)c(c3)-c3cc2ccc3OCCN)c(C)c1 [Compound 382] | 0.5 (≈ 0.548 µM) | 0.5 (≈ 0.548 µM) | 64 (≈ 70.1 µM) | – | – | – | – | – |
| CCCCCCCCCC(=O)N[C@@H](CCC(N)=O)C(=O)N[C@@H](CCN)C(=O)N(C)[C@@H]1C(=O)N[C@@H](C)C(=O)N[C@H](C(=O)NCC#N)Cc2ccc(OCCN)c(c2)-c2cc1ccc2OCCN [Compound 385] | 0.25 (≈ 0.272 µM) | 0.5 (≈ 0.543 µM) | 32 (≈ 34.8 µM) | – | – | – | – | – |
| CCCCCCCCCC(=O)N[C@@H](CCNC(C)=O)C(=O)N[C@@H](CCN)C(=O)N(C)[C@@H]1C(=O)N[C@@H](C)C(=O)N[C@H](C(=O)NCC#N)Cc2ccc(OCCN)c(c2)-c2cc1ccc2OCCN [Compound 386] | 0.38 (≈ 0.407 µM) | 0.5 (≈ 0.535 µM) | 64 (≈ 68.5 µM) | – | – | – | – | – |
| CCCCCCCCCCCC(=O)N[C@@H](CC(=O)O)C(=O)N[C@@H](CN)C(=O)N(C)[C@@H]1C(=O)N[C@@H](C)C(=O)N[C@H](C(=O)NCC#N)Cc2ccc(OCCN)c(c2)-c2cc1ccc2OCCN [Compound 387] | 0.25 (≈ 0.271 µM) | 0.38 (≈ 0.413 µM) | 64 (≈ 69.5 µM) | – | – | – | – | – |
| CCCCCCCCCC(=O)N(C)[C@@H](CO)C(=O)N[C@@H](CCN)C(=O)N(C)[C@@H]1C(=O)N[C@@H](C)C(=O)N[C@H](C(=O)NCC#N)Cc2ccc(OCCN)c(c2)-c2cc1ccc2OCCN [Compound 388] | 0.25 (≈ 0.28 µM) | 0.25 (≈ 0.28 µM) | 48 (≈ 53.7 µM) | – | – | – | – | – |
| CCCCCCCc1ccc(C(=O)N(C)[C@@H](CCN)C(=O)N(C)[C@@H]2C(=O)N[C@@H](C)C(=O)N[C@H](C(=O)NCC#N)Cc3ccc(OCCN)c(c3)-c3cc2ccc3OCCN)cc1 [Compound 396] | – | – | – | – | – | 0.094 (≈ 0.11 µM) | 0.094 (≈ 0.11 µM) | 16 (≈ 18.7 µM) |
| CCCCc1ccc(C(=O)N(C)[C@@H](CCN)C(=O)N(C)[C@@H]2C(=O)N[C@@H](C)C(=O)N[C@H](C(=O)NCC#N)Cc3ccc(OCCN)c(c3)-c3cc2ccc3OCCN)c(C)c1 [Compound 397] | – | 0.38 (≈ 0.46 µM) | – | 3 (≈ 3.63 µM) | 64 (≈ 77.5 µM) | – | – | – |
| CCCCCCCCCCCC(=O)N(C)[C@@H](CCN)C(=O)N(C)[C@@H]1C(=O)N[C@@H](C)C(=O)N[C@H](C(=O)NCC#N)Cc2ccc(OCCN)c(c2)-c2cc1ccc2OCCN [Compound 398] | – | 0.13 (≈ 0.156 µM) | – | 0.13 (≈ 0.156 µM) | 16 (≈ 19.2 µM) | – | – | – |
| CCCCCCCCCC(=O)N[C@@H](CO)C(=O)N(C)[C@@H](CCN)C(=O)N(C)[C@@H]1C(=O)N[C@@H](C)C(=O)N[C@H](C(=O)NCC#N)Cc2ccc(OCCN)c(c2)-c2cc1ccc2OCCN [Compound 399] | 0.25 (≈ 0.28 µM) | 0.19 (≈ 0.213 µM) | 16 (≈ 17.9 µM) | – | – | – | – | – |
| CCCCCCCCNC(=O)N[C@@H](CCN)C(=O)N(C)[C@@H]1C(=O)N[C@@H](C)C(=O)N[C@H](C(=O)NCC#N)Cc2ccc(OCCN)c(c2)-c2cc1ccc2OCCN [Compound 402] | – | 0.19 (≈ 0.24 µM) | – | 0.38 (≈ 0.479 µM) | 32 (≈ 40.4 µM) | – | – | – |
| CCCCCCCCc1ccc(C(=O)N[C@@H](CCN)C(=O)N(C)[C@@H]2C(=O)N[C@@H](C)C(=O)N[C@H](C(=O)NCC#N)Cc3ccc(OCCN)c(c3)-c3cc2ccc3OCCN)c(OCC(=O)O)c1 [Compound 409] | – | < 0.0039 | – | 0.25 (≈ 0.269 µM) | 0.5 (≈ 0.539 µM) | – | – | – |
| CCCCCCCCc1ccc(C(=O)N[C@@H](CCN)C(=O)N(C)[C@@H]2C(=O)N[C@@H](C)C(=O)N[C@H](C(=O)NCC#N)Cc3ccc(OCCN)c(c3)-c3cc2ccc3OCCN)c(OCC(=O)NCC#N)c1 [Compound 410] | – | 0.13 (≈ 0.135 µM) | – | 0.13 (≈ 0.135 µM) | 6 (≈ 6.21 µM) | – | – | – |
| Cc1cc(-n2cccn2)ccc1C(=O)N[C@@H](CCN)C(=O)N(C)[C@@H]1C(=O)N[C@@H](C)C(=O)N[C@H](C(=O)NCC#N)Cc2ccc(OCCN)c(c2)-c2cc1ccc2OCCN [Compound 411] | – | – | – | – | – | 2 (≈ 2.43 µM) | 0.5 (≈ 0.608 µM) | 16 (≈ 19.5 µM) |
| CCCCCCCCc1ccc(C(=O)N[C@@H](CCN)C(=O)N(C)[C@@H]2C(=O)N[C@@H](C)C(=O)N[C@H](C(=O)NCC#N)Cc3ccc(OCCN)c(c3)-c3cc2ccc3OCCN)c(/C=C/C(=O)O)c1 [Compound 414] | – | – | – | – | – | 0.5 (≈ 0.541 µM) | 0.25 (≈ 0.271 µM) | 64 (≈ 69.3 µM) |
